Values of other authors, collected in US20160303203A1, “COMPOSITIONS AND METHODS FOR THE TREATMENT OF WOUNDS” (priority 2013, published 2016).

System: diabetic ulcers
Conditions: patients with diabetic ulcers treated with phenytoin; control group 45 days

## O=C1NC(=O)C(c2ccccc2)(c2ccccc2)N1 [phenytoin, 5.5-diphenyl-2,4-imidazolidinedione]
  mean healing time: 21 days
